Patent publication US12655116B2, “Substituted isophthalic acid diamides” (Bayer Aktiengesellschaft, priority 2020, dated 2026)
Where “and” joins values, the source holds several entries; their conditions need not be identical. Equal entries are not always repeated.

Legend:
ABUTH [1] = assay: Pre-emergence herbicidal action against ABUTH; assay type: in vivo, Abutilon theophrasti
In short: (§1)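 Greenhouse pots of sandy loam held seeds covered with soil, onto which the compound was applied before emergence. An aqueous suspension or emulsion of WP or EC was used at 600 to 800 l/ha with 0.2% wetting agent. Percent damage was judged visually at 3 weeks.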

AMARE [2] = assay: Pre-emergence herbicidal action against AMARE; assay type: in vivo, Amaranthus retroflexus
In short: as §1

ECHCG = assay: Pre-emergence herbicidal action against ECHCG; assay type: in vivo, Echinochloa crus-galli
In short: as §1

MATIN = assay: Pre-emergence herbicidal action against MATIN; assay type: in vivo, Matricaria inodora
In short: as §1

STEME = assay: Pre-emergence herbicidal action against STEME; assay type: in vivo, Stellaria media
Text: Seeds of monocotyledonous and dicotyledonous weed plants and crop plants are laid out in sandy loam soil in wood-fiber pots and covered with soil. The compounds of the invention, formulated in the form of wettable powders (WP) or as emulsion concentrates (EC), are then applied to the surface of the covering soil in the form of an aqueous suspension or emulsion at a water application rate equivalent to 600 to 800 l/ha, with addition of 0.2% wetting agent. After the treatment, the pots are placed in a greenhouse and kept under good growth conditions for the trial plants. The damage to the test plants is scored visually after a test period of 3 weeks by comparison with untreated controls (herbicidal activity in percent (%): 100% activity=the plants have died, 0% activity=like control plants). […] The tables below illustrate, in an illustrative manner, the post-emergence herbicidal action of the compounds of the invention, the herbicidal activity being stated in percent.

VIOTR = assay: Pre-emergence herbicidal action against VIOTR; assay type: in vivo, Viola tricolor; conditions: dosage 80 g/ha
In short: as §1

DIGSA = assay: Pre-emergence herbicidal action against DIGSA; assay type: in vivo, Digitaria sanguinalis
In short: as §1

ABUTH [3] = assay: Post-emergence herbicidal action against ABUTH; assay type: in vivo, Abutilon theophrasti; conditions: visual assessment about 3 weeks after treatment vs untreated controls
In short: (§2)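 A WP or EC formulation diluted in water with 0.2% wetting agent was sprayed at 600 to 800 l/ha onto one-leaf-stage plants grown in sandy loam. About 3 weeks later, action was rated visually in percent, 100% being dead plants.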

AMARE [4] = assay: Post-emergence herbicidal action against AMARE; assay type: in vivo, Amaranthus retroflexus; conditions: 20 g/ha, visual assessment about 3 weeks after treatment, 100% = plants have died, 0% = like control plants
In short: as §2

SETVI [5] = assay: Post-emergence herbicidal action against SETVI; assay type: in vivo, Setaria viridis; conditions: dosage 20 g/ha
In short: as §2

SETVI [6] = assay: Pre-emergence herbicidal action against SETVI; assay type: in vivo, Setaria viridis; conditions: Setaria viridis, 504 h
In short: as §1

[7] = 80 g/ha, scored visually after 3 weeks vs untreated controls (100% = plants have died, 0% = like control plants)

CCc1c(C(=O)Nc2ncnn2C)ccc(C(F)(F)F)c1C(=O)NC1CC1 [Example 4-212]
Pre-emergence action against ABUTH (herbicidal activity) (ABUTH [1]; [7]): 90% | Pre-emergence action against AMARE in % (AMARE [2]; 20 g/ha, scored visually after 3 weeks vs untreated controls, 100% = plants have died, 0% = like control plants): 90% | Pre-emergence action against AMARE in % (AMARE [2]; [7]): 90% | Pre-emergence action against ECHCG in % (ECHCG; 80 g/ha): 80% | Pre-emergence action against MATIN in % (MATIN; dosage 20 g/ha): 80% | Pre-emergence action against MATIN in % (MATIN; dosage 80 g/ha): 80% and 90% | Pre-emergence action against STEME in % (STEME; dosage 80 g/ha): 90% | Pre-emergence action against VIOTR in % (VIOTR): 90% | Pre-emergence action against DIGSA in % (DIGSA; dosage 20 g/ha): 80% | Pre-emergence action against DIGSA in % (DIGSA; dosage 80 g/ha): 90% | Post-emergence action against ABUTH in % (ABUTH [3]; dosage 20 g/ha): 80% | Post-emergence action at 20 g/ha against AMARE in % (AMARE [4]): 80% | Post-emergence action against SETVI in % (SETVI [5]): 80%

CC(=O)NC(=O)c1c(C(F)(F)F)ccc(C(=O)Nc2nnc(C)o2)c1Cl [Example 6-252]
pest or weed control at 80 g/ha (ABUTH [1]; Abutilon theophrasti, 504 h, 80 g/ha, scored visually after 3 weeks vs untreated controls (100% = plants have died, 0% = like control plants)): 80% | pest or weed control at 320 g/ha (ABUTH [1]; Abutilon theophrasti, 504 h, Dosage: 320 g/ha, scored visually after 3 weeks, 100% = plants have died, 0% = like control plants): 90% | pest or weed control at 20 g/ha (AMARE [2]; Amaranthus retroflexus, 504 h, 20 g/ha, scored visually after 3 weeks vs untreated controls, 100% = plants have died, 0% = like control plants): 80% | pest or weed control at 80 g/ha (AMARE [2]; Amaranthus retroflexus, 504 h, 80 g/ha, scored visually after 3 weeks vs untreated controls, 100% = plants have died, 0% = like control plants): 90% | pest or weed control at 320 g/ha (AMARE [2]; Amaranthus retroflexus, 504 h, 320 g/ha, scored visually after 3 weeks, 100% = plants have died, 0% = like control plants): 90% | pest or weed control at 320 g/ha (ECHCG; Echinochloa crus-galli, 504 h, 320 g/ha): 90% | pest or weed control at 80 g/ha (SETVI [6]; dosage 80 g/ha): 90% | pest or weed control at 320 g/ha (SETVI [6]; dosage 320 g/ha): 90% | pest or weed control at 320 g/ha (STEME; Stellaria media, 504 h, dosage 320 g/ha): 90% | pest or weed control at 80 g/ha (DIGSA; Digitaria sanguinalis, 504 h, dosage 80 g/ha): 90% | pest or weed control at 320 g/ha (DIGSA; Digitaria sanguinalis, 504 h, dosage 320 g/ha): 90% | pest or weed control at 20 g/ha (ABUTH [3]; Abutilon theophrasti, 504 h, dosage 20 g/ha): 80% | pest or weed control at 80 g/ha (ABUTH [3]; Abutilon theophrasti, 504 h, dosage 80 g/ha): 100%
